Measured values as given in patent US12071414B2, “Apelin receptor agonists and methods of use thereof” (Sanford Burnham Prebys Medical Discovery Institute, priority 2015, dated 2024).

Molecular target: T1, human apelin receptor (APJ, AGTRL-one, APLNR) (Homo sapiens, UniProt P35414)
T1 construct: host or cells: Chinese hamster ovary cells, stably integrated receptor
T1 sequence (P35414 1-380): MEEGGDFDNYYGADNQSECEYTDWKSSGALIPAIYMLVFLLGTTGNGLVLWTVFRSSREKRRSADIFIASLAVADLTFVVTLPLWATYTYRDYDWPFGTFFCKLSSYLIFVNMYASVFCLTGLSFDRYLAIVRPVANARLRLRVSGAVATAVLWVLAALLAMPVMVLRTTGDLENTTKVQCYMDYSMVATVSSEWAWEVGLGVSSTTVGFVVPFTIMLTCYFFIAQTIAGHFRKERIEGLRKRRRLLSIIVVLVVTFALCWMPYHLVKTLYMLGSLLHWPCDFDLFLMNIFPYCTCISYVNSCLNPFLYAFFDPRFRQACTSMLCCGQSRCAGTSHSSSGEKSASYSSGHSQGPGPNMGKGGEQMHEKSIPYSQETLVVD
Assay: cell-based cAMP TR-FRET assay of apelin receptor activation
Settings: CHO cells expressing human APJ, forskolin-stimulated cAMP, 0.5 h incubation, 50% of control (apelin-13, 1 nM) response; read-out: Potency Category (EC50)
Procedure: The assays disclosed herein were performed using cell lines from DiscoveX, Inc. Biological activity was determined to the cell—based assay. This assay detects activation of the receptor by reporting on intracellular cyclic adenosine monophosphate (cAMP) level. Chinese hamster ovary cells engineered to express the stably integrated human apelin receptor (APJ, AGTRL—one, APLNR), pleaded into the wells of the microtiter plate. Cells were stimulated with […] to increase intracellular cyclic AMP. Immediately following, compounds were added to the range of final concentrations 0.0-100 μM, in DMSO (not to exceed a final DMSO concentration greater than 1% ν/ν), and allowed to incubate with the cells for 0.5 h. At the end of the incubation, cells were lysed to stop APJ signaling and cAMP was quantified using a commercially available competitive immunoassay kit that applies homogenous time—resolved florescence energy transfer (TR—FRET). The assay is based on the competition between a europium (Eu) chelate—labeled cAMP donor tracer and cellular cAMP for binding sites on a cAMP—specific monoclonal antibody labeled with an acceptor fluorophore. When antibodies are bound to the cAMP tracer light emissions at 320 nm stimulate the energy transfer from the donor to the acceptor, which in turn emits light at 665 nm. In the presence of competitive unlabeled cAMP (derived from the activity of the receptor or forskolin-stimulated production of cAMP), the labelled cAMP tracer is dissociated from the cAMP antibody, resulting in a loss of FRET signal. The amount of light emitted by the FRET is inversely proportional to the cAMP generated by the cell/receptor system. Potency and efficacy at APJ are reported in reference to the canonical APJ receptor agonist apelin—13 when tested at 1 nM. […] Compound efficacy (% response) is reported as a percentage of the maximal apein-13 response at 1 nM (control). Potencies were calculated by fitting a […] logistic curve to concentration response consisting of at least 10 discrete data points spanning effective range of the compounds in the cell-based assay that measures cAMP. […] Category B is 200-500 nM; Category C is 100-200 nM; Category D is 50-100 nM; and Category E is <50 nM.

EC50	SMILES
200 to 500 nM	CCc1ccc(OC(C(=O)Nc2nc3cc(OC)c(OC)cc3s2)c2ccc(S(=O)(=O)CC)cc2)cc1 (centres unmarked)
200 to 500 nM	COc1cc2nc(NC(=O)C(Oc3ccc(C#N)cc3)c3ccc(OCCN4CCOCC4)cc3)sc2cc1OC (centres unmarked)
< 50 nM	COc1cc2nc(NC(=O)C(Oc3ccc(C#N)cc3)c3ccc(C#N)cc3)sc2cc1OC (centres unmarked)
< 50 nM	COc1cc2nc(NC(=O)C(Oc3ccc(C#N)cc3)c3ccc(OC(C)C)cc3)sc2cc1OC (centres unmarked)
< 50 nM	COc1cc2nc(NC(=O)C(Oc3ccc(C#N)cc3)c3ccc(C(=O)N(C)C)cc3)sc2cc1OC (centres unmarked)
200 to 500 nM	COc1cc2nc(NC(=O)C(Oc3ccc(C#N)cc3)c3ccc(OCCN4CCCCC4)cc3)sc2cc1OC (centres unmarked)
< 50 nM	COCCS(=O)(=O)c1ccc(C(Oc2ccc(C#N)cc2)C(=O)Nc2nc3cc(OC)c(OC)cc3s2)cc1 (centres unmarked)
200 to 500 nM	CCS(=O)(=O)c1ccc(C(Oc2ccc(C)cc2)C(=O)Nc2nc3cc(OC)c(OC)cc3s2)cc1 (centres unmarked)
> 500 nM	CCS(=O)(=O)c1ccc(C(NC2CCCC2)C(=O)Nc2nc3cc(OC)c(OC)cc3s2)cc1 (centres unmarked)
> 500 nM	CCS(=O)(=O)c1ccc(C(C(=O)Nc2nc3cc(OC)c(OC)cc3s2)N2CCOCC2)cc1 (centres unmarked)
< 50 nM	CCS(=O)(=O)c1ccc(C(Oc2ccc(C(=O)OC)cc2)C(=O)Nc2nc3cc(OC)c(OC)cc3s2)cc1 (centres unmarked)
> 500 nM	CCS(=O)(=O)c1ccc(C(NCC(C)C)C(=O)Nc2nc3cc(OC)c(OC)cc3s2)cc1 (centres unmarked)
> 500 nM	CCC(C(=O)Nc1nc2cc(OC)c(OC)cc2s1)c1ccc(S(=O)(=O)CC)cc1 (centres unmarked)
200 to 500 nM	CCS(=O)(=O)c1ccc(C(C(=O)Nc2nc3cc(OC)c(OC)cc3s2)C(C)C)cc1 (centres unmarked)
> 500 nM	CCS(=O)(=O)c1ccc(C(Oc2ccc(C#N)cc2)C(=O)Nc2nc3cc(OCCN4CCOCC4)c(OC)cc3s2)cc1 (centres unmarked)
> 500 nM	COc1cc2nc(NC(=O)Cc3ccc(S(=O)(=O)N(C)C)cc3)sc2cc1OC
< 50 nM	COc1cc2nc(NC(=O)C(Oc3ccc(C#N)cc3)c3ccc(C(=O)N(C)C)cc3)oc2cc1OC (centres unmarked)
> 500 nM	COc1cc2nc(NC(=O)Cc3ccc(S(=O)(=O)C4CCCC4)cc3)sc2cc1OC
< 50 nM	COc1cc2nc(NC(=O)C(Oc3ccc(C#N)cc3)c3ccc([N+](=O)[O-])cc3)sc2cc1OC (centres unmarked)
> 500 nM	CCS(=O)(=O)c1ccc(CC(=O)Nc2nc3c4c(ccc3s2)OCO4)cc1
> 500 nM	CCS(=O)(=O)c1ccc(C(OCCOC)C(=O)Nc2nc3cc(OC)c(OC)cc3s2)cc1 (centres unmarked)
< 50 nM	COc1cc2nc(NC(=O)C(Oc3ccc(C#N)cc3)c3ccccc3S(=O)(=O)Cc3ccccc3)sc2cc1OC (centres unmarked)
100 to 200 nM	COC(=O)c1ccc(C(Oc2ccc(C#N)cc2)C(=O)Nc2nc3cc(OC)c(OC)cc3s2)cc1 (centres unmarked)

EC50	SMILES
> 500 nM	CCS(=O)(=O)c1ccc(C(OC(C)C)C(=O)Nc2nc3cc(OC)c(OC)cc3s2)cc1 (centres unmarked)
100 to 200 nM	CCS(=O)(=O)c1ccc(C(Oc2ccc(C#N)cc2C(F)(F)F)C(=O)Nc2nc3cc(OC)c(OC)cc3s2)cc1 (centres unmarked)
> 500 nM	CCS(=O)(=O)c1ccc(C(Nc2ccccc2C)C(=O)Nc2nc3cc(OC)c(OC)cc3s2)cc1 (centres unmarked)
200 to 500 nM	CCS(=O)(=O)c1ccc(C(Oc2ccc(C(F)(F)F)cc2)C(=O)Nc2nc3cc(OC)c(OC)cc3s2)cc1 (centres unmarked)
> 500 nM	CCS(=O)(=O)c1ccc(C(Oc2ccc(C#N)cc2)C(=O)Nc2nc3cc(OC)c(Cl)cc3s2)cc1 (centres unmarked)
200 to 500 nM	CCS(=O)(=O)c1ccc(C(Oc2ccc(C#N)cc2)C(=O)Nc2nc3cc(OCCO)c(OC)cc3s2)cc1 (centres unmarked)
> 500 nM	CCS(=O)(=O)c1ccc(C(Oc2ccc(C#N)cc2)C(=O)Nc2nc3ccc(OCCO)cc3s2)cc1 (centres unmarked)
> 500 nM	CCS(=O)(=O)c1ccc(C2(C(=O)Nc3nc4cc(OC)c(OC)cc4s3)CC2)cc1
> 500 nM	CCS(=O)(=O)c1ccc(C(Oc2ccc(OC)cc2)C(=O)Nc2nc3ccc(N4CCN(C)CC4)cc3s2)cc1 (centres unmarked)
> 500 nM	COc1cc2nc(NC(=O)Cc3cccc(C(=O)O)c3)sc2cc1OC
50 to 100 nM	COCCNC(=O)c1ccc(C(Oc2ccc(C#N)cc2)C(=O)Nc2nc3cc(OC)c(OC)cc3s2)cc1 (centres unmarked)
> 500 nM	CCS(=O)(=O)c1ccc(C(Oc2ccc(C#N)cc2)C(=O)Nc2nc3nc(OCCOC)c(OC)cc3s2)cc1 (centres unmarked)
> 500 nM	COCCS(=O)(=O)c1ccc(CC(=O)Nc2nc3cc(OC)c(OC)cc3s2)cc1
50 to 100 nM	COc1cc2nc(NC(=O)C(Oc3ccc(C#N)cc3)c3ccc(C(=O)NCCO)cc3)sc2cc1OC (centres unmarked)
> 500 nM	COc1cc2nc(NC(=O)Cc3cccc(S(=O)(=O)C(C)C)c3)sc2cc1OC
100 to 200 nM	COc1cc2nc(NC(=O)C(Oc3ccc(OCCN(C)C)cc3)c3ccc(C#N)cc3)sc2cc1OC (centres unmarked)
200 to 500 nM	CCCOc1ccc(OC(C(=O)Nc2nc3cc(OC)c(OC)cc3s2)c2ccc(S(=O)(=O)CC)cc2)cc1 (centres unmarked)
> 500 nM	CCS(=O)(=O)c1ccc(C(Oc2cccc(C)c2)C(=O)Nc2nc3cc(OC)c(OC)cc3s2)cc1 (centres unmarked)
100 to 200 nM	COc1cc2nc(NC(=O)C(Oc3ccc(C#N)cc3)c3ccccc3S(=O)(=O)C(C)C)sc2cc1OC (centres unmarked)
> 500 nM	CCS(=O)(=O)c1ccc(C(Nc2ccc(OC)cc2)C(=O)Nc2nc3cc(OC)c(OC)cc3s2)cc1 (centres unmarked)
> 500 nM	CCS(=O)(=O)c1ccc(C(OCc2ccc(C#N)cc2)C(=O)Nc2nc3cc(OC)c(OC)cc3s2)cc1 (centres unmarked)
200 to 500 nM	CCS(=O)(=O)c1ccc(C(Oc2ccc(C3CCCC3)cc2)C(=O)Nc2nc3cc(OC)c(OC)cc3s2)cc1 (centres unmarked)
200 to 500 nM	CCS(=O)(=O)c1ccc(C(Oc2ccc(C#N)cc2)C(=O)Nc2nc3cc(OC(C)C)c(OC)cc3s2)cc1 (centres unmarked)

EC50	SMILES
< 50 nM	COc1cc2nc(NC(=O)C(Oc3ccc(C#N)cc3)c3ccc(C(=O)NCCN4CCCCC4)cc3)sc2cc1OC (centres unmarked)
100 to 200 nM	COc1cc2nc(NC(=O)C(Oc3ccc(C#N)cc3)c3ccc(S(=O)(=O)c4ccc(F)cc4)cc3)sc2cc1OC (centres unmarked)
< 50 nM	CCS(=O)(=O)c1ccc(C(Oc2ccc(C#N)cc2C)C(=O)Nc2nc3cc(OC)c(OC)cc3s2)cc1 (centres unmarked)
200 to 500 nM	COc1cc2nc(NC(=O)C(Oc3ccc(C#N)cc3)c3cccc(S(=O)(=O)c4ccc(F)cc4)c3)sc2cc1OC (centres unmarked)
> 500 nM	COC(=O)c1cccc(CC(=O)Nc2nc3cc(OC)c(OC)cc3s2)c1
> 500 nM	CCS(=O)(=O)c1ccc(C(Oc2ccc(C#N)cc2)C(=O)Nc2nc3cc(OCc4ccccc4)c(OC)cc3s2)cc1 (centres unmarked)
> 500 nM	CCS(=O)(=O)c1ccc(C(OCC=C(C)C)C(=O)Nc2nc3cc(OC)c(OC)cc3s2)cc1 (centres unmarked)
> 500 nM	COc1cc2nc(NC(=O)Cc3cccc(S(=O)(=O)c4ccc(F)cc4)c3)sc2cc1OC
50 to 100 nM	CCCCS(=O)(=O)c1cccc(C(Oc2ccc(C#N)cc2)C(=O)Nc2nc3cc(OC)c(OC)cc3s2)c1 (centres unmarked)
200 to 500 nM	COc1cc2nc(NC(=O)C(Oc3ccc(C(=O)NCCO)cc3)c3ccc(C#N)cc3)sc2cc1OC (centres unmarked)
> 500 nM	CCS(=O)(=O)c1ccc(C(Oc2ccc(OCc3ccccc3)cc2)C(=O)Nc2nc3cc(OC)c(OC)cc3s2)cc1 (centres unmarked)
> 500 nM	CCS(=O)(=O)c1ccc(C(Oc2cccc(Cl)c2)C(=O)Nc2nc3cc(OC)c(OC)cc3s2)cc1 (centres unmarked)
50 to 100 nM	CCS(=O)(=O)c1ccc(C(Oc2ccc(C#N)cc2)C(=O)Nc2nc3ccc(OC)c(OC)c3s2)cc1 (centres unmarked)
< 50 nM	COc1cc2nc(NC(=O)C(Oc3ccc(C(=O)N4CCNCC4)cc3)c3ccc(C#N)cc3)sc2cc1OC (centres unmarked)
> 500 nM	CCS(=O)(=O)c1ccc(C(Oc2ccc(C#N)cc2)C(=O)Nc2nc3ccc(N4CCN(C)CC4)cc3s2)cc1 (centres unmarked)
> 500 nM	COc1ccc(OC(C(=O)Nc2nc3cc(OC)c(OC)cc3s2)c2ccccc2S(=O)(=O)c2ccc(F)cc2)cc1 (centres unmarked)
< 50 nM	COc1cc2nc(NC(=O)C(Oc3ccc(C(=O)N(C)C)cc3)c3ccc(C#N)cc3)sc2cc1OC (centres unmarked)
> 500 nM	COc1cc2nc(NC(=O)C(Oc3ccc(C#N)cc3)c3ccc(S(=O)(=O)c4ccc(C(F)(F)F)cc4)cc3)sc2cc1OC (centres unmarked)
200 to 500 nM	COc1cc2nc(NC(=O)C(Oc3ccc(C#N)cc3)c3ccc(OCCN4CCCC4)cc3)sc2cc1OC (centres unmarked)
> 500 nM	CCS(=O)(=O)c1ccc(C(Oc2ccc(C#N)cc2)C(=O)Nc2cc3ccccc3[nH]2)cc1 (centres unmarked)
50 to 100 nM	CCS(=O)(=O)c1ccc(C(Oc2ccc(C#N)c(C)c2)C(=O)Nc2nc3cc(OC)c(OC)cc3s2)cc1 (centres unmarked)
200 to 500 nM	CCS(=O)(=O)c1ccc(CC(=O)Nc2nc3cc(OC)c(OC)cc3s2)cc1
